How the values were obtained:
STZ diabetic rats [1] = experiment: Hemodynamic parameters by tail cuff apparatus; type: in vivo, rat
Protocol: Hemodynamic parameters were measured using tail cuff apparatus (Non-invasive measurement of Blood Pressure-Kent Scientific, USA). Garcinol was also observed to improve the systolic, diastolic and mean Blood Pressure.

STZ diabetic rats [2] = experiment: Renal function and biochemical parameters in plasma/serum of STZ diabetic rats; type: in vivo, rat; settings: 8 weeks, garcinol 200 mg/kg, olmesartan 6 mg/kg, glimepiride 1 mg/kg
Protocol: (§1) The Garcinol used for the experimental studies was bought from Sami Labs, Hyderabad. It was administered at the dose of 200 mg/kg dispersed in water with 1% CMC. Further, the experimental procedures were conducted according to the Institutional Animal Ethical Committee (protocol no. DIPSAR/IAEC/2009/01) and CPCSEA guidelines. All rats were housed under conventional conditions with controlled temperature, humidity and light (12 hours light-dark cycle), and were provided with a standard commercial diet and water (ad libitum). Healthy albino rats of Wistar strain were kept for breeding. Diabetes was induced by administration of streptozotocin (STZ, 90 mg/kg, i.p.) to a group of 2 day old pups. Age-matched control rats were given an equal volume of vehicle and considered as ‘Normal’ group of rats. Six weeks after injection, the blood glucose level was measured from the tail vein. Rats with a fasting blood glucose level over 160 mg/dl were considered as diabetic.
(§2) After 6 weeks, four groups of animals, each comprising of 8 animals were made. The groups were assigned to receive vehicle or garcinol (200 mg/kg dispersed in 1% CMC); Olmesartan (6 mg/kg/day) and Glimepiride (1 mg/kg/day) once daily for 8 weeks. After the final drug administration, body weight was measured and blood samples were collected in both fasting and post prandial conditions. The kidney of treated and untreated animals were isolated and fixed in 10% buffered formalin solution to prepare paraffin sections.
Biochemical estimation for glucose, insulin, albumin and total proteins; glomerular proteins (viz β-2 microglobulin, serum cystatin c and serum creatinine) for the determination of GFR; inflammatory cytokines and growth factors like Tumor necrosis factor (TNF-α), Nitric Oxide (NO), Transforming growth factor (TGF-β1) and Vascular endothelial growth factor (VEGF) and kidney specific molecular markers involving adiponectin and erythropoietin were made in plasma/serum.

STZ diabetic rats [3] = experiment: DNA fragmentation assay (TUNEL) for apoptosis in kidney; type: in vivo, rat; settings: for Apoptosis: kidney of STZ diabetic rats, 8 weeks, garcinol 200 mg/kg, olmesartan 6 mg/kg, glimepiride 1 mg/kg; for DNA fragmentation / apoptosis in kidney (qualitative): kidney of diabetic rats, FIG. 4
Protocol: For detection and localization of apoptosis in kidney, the technique of terminal deoxynucleotidyl transferase-mediated dUTP nick end labeling (TUNEL) (Apo-BrdU-IHC™ In Situ DNA Fragmentation Assay Kit, Biovison, USA) were employed. Briefly, sections were deparaffinized, hydrated, and digested with proteinase K (20 μg/ml), and then added biotinylated dUTP to the 3′ end of DNA fragments by incubating sections in 0.05 mol/l Tris-HCl buffer (pH 7.6) with 0.03 U/μl TdT and 0.04 nmol/μl biotin-11-dUTP at 37° C. for 1 h. The sections were rinsed in PBS. Endogenous peroxidase was blocked with 0.3% H2O2 in distilled H2O. The sections were rinsed with PBS and covers with 2% blocking solution in 0.1 mol/l sodium maleate to reduce background staining. The sections were then incubated with avidin-peroxidase complexes in PBS (1:50) for 30 min and rinsed with PBS (3×5 min). Peroxidase activity was visualized with 3,3′-diaminobenzidine until the brown product was clearly visible. The sections were then counterstained with methyl green. The positive apoptotic cells were the cells with brown nucleus 2.10.

STZ diabetic rats [4] = experiment: Kidney histopathology, glomerulosclerotic index (periodic acid-Schiff); type: in vivo, rat; settings: 8 weeks; for GSI (glomerulosclerotic index): kidney of STZ diabetic rats, sclerosis graded 0 to 4, garcinol 200 mg/kg, olmesartan 6 mg/kg, glimepiride 1 mg/kg
Text: (§3) Kidney sections were stained with periodic acid-Schiff's reagent and Masson's modified trichrome to assess glomerulosclerosis and collagenous tubulointerstitial matrix, respectively.
In 4 μm kidney sections stained with periodic acid-Schiff's reagent, 150 glomeruli from each animal were examined. The extent of sclerosis in each glomerulus was subjectively graded on a scale of 0 to 4, with the following grades: grade 0 normal, grade 1 sclerotic area <25% (minimal), grade 2 sclerotic area 25-50% (moderate), grade 3 sclerotic area 50-75% (moderate to severe) and grade 4 sclerotic area 75-100% (severe). A glomerulosclerotic index was then calculated using the formula: […]
Where GSI is glomerulosclerotic index, Fi is the % of glomeruli in the rat with a given score (i).

STZ diabetic rats [5] = experiment: Homeostatic model assessment (HOMA-Index, β-cell function) in STZ diabetic rats; type: in vivo, rat; settings: STZ diabetic rats after treatment; mean ± S.E.M., five animals
Text: The homeostatic model assessment (HOMA) is a method used to quantify insulin resistance and beta-cell function (Homeostasis model assessment: insulin resistance and beta-cell function from fasting plasma glucose and insulin concentrations in man. Diabetologia 28: 412-9.). The approximating equation for insulin resistance, in the early model, used a fasting plasma sample, and was derived by use of the insulin-glucose product, divided by a constant. HOMA-IR=(Glucose×Insulin)/405;HOMA-% B=([…])/(Glucose-63)
Where IR is insulin resistance and % B is the β-cell function where Glucose is given in mg/dl and Insulin is given in μU/mL (both during fasting). Garcinol inhibited insulin resistance assessed by HOMA-Index with significance when compared with the diabetic group.

STZ diabetic rats [6] = experiment: Tubulointerstitial matrix index (Masson's trichrome); type: in vivo, rat; settings: kidney of STZ diabetic rats, 8 weeks; semi-quantified; garcinol 200 mg/kg, olmesartan 6 mg/kg, glimepiride 1 mg/kg
Protocol: as §3
The accumulation of matrix within the tubulointerstitial was assessed on Masson's trichrome stained sections. Blue area on a trichrome-stained section was selected for its color range and the proportional area of tissue with this range of color was then semi-quantified as tubulointerstitial matrix index (TIMI).

STZ diabetic rats [7] = experiment: Fasting and post prandial blood glucose in STZ diabetic rats; type: in vivo, rat; parameters: Reduction of post prandial glucose: concentration or dose not given beside the values; settings: for Reduction of fasting blood glucose / Reduction of post prandial glucose: 8 weeks treatment; for Reduction of post prandial glucose: compared to diabetic group; for Blood glucose, fasting, before treatment / Blood glucose, post prandial, before treatment: baseline before treatment; for Blood glucose, fasting, before treatment / Blood glucose, post prandial, before treatment / Blood glucose, fasting, after treatment / Blood glucose, post prandial, after treatment: mean ± S.E.M., eight animals; for Blood glucose, fasting, after treatment / Blood glucose, post prandial, after treatment: once daily for 8 weeks, garcinol 200 mg/kg, olmesartan 6 mg/kg/day, glimepiride 1 mg/kg/day
Protocol: as §1, §2
However, the decrease was less than antidiabetic reference glimepiride treatment (˜27%). Moreover, the reduction of post prandial glucose with garcinol treatment (˜36%) was more than olmesartan (˜10%) but was lower than observed with glimepiride treatment (almost 43%) when compared to diabetic group.

rat nephrin = experiment: Immunohistochemistry for nephrin in kidney; type: in vivo; settings: kidney of STZ diabetic rats, 8 weeks; garcinol 200 mg/kg, olmesartan 6 mg/kg, glimepiride 1 mg/kg
Protocol: Immunohistochemistry was done as previously described according to a modified method using a Polyclonal (C-Terminus) Antibody which is identical to rat nephrin. These experiments were done using 4 micron […] kidney sections, as previously reported. Paraffin-embedded tissues sections were deparaffinized in microwave oven for 3 minutes. The sections were rehydrated in graded series of xylene and alcohols. Endogenous peroxidase activity was blocked by 3% hydrogen peroxide in distilled water for 15 minutes. Antigen retrieval was achieved by steam heating in a solution of citrate buffer, pH 6.0 for 30 minutes. Sections were blocked with 10% normal goat serum for polyclonal antibodies. Sections were then incubated for one hour with primary antibody Polyclonal (C-Terminus) Antibody which is identical to rat nephrin. The sections were then incubated in avidin-biotin complex at 1:25 dilution for 30 min at room temperature and developed using diaminobenzidine (DAB) as chromogen. After washing, the sections were counter-stained with hematoxylin and coverslipped. Negative controls were carried out by incubation in the absence of the primary antibody. The quantification of nephrin was done using point counting technique for each animal as described in established method. Davis B J, Johnston C I, Burrell, L M, Burns W C, Kubota E, Cao Z, Cooper M E, Allen T J. Renoprotective effects of vasopeptidase inhibition in an experimental model of diabetic nephropathy. Diabetologia. 2003; 46(7): 961-71.

[8] = tested on: glucose transporter 4 (GLUT4); experiment: GLUT-4 protein expression in soleus muscle of diabetic rats (Western blot); type: in vivo, rat; settings: 8 weeks treatment, FIG. 3
Protocol: (§4) For determination of glucose transporter 2 (GLUT2) protein expressions in liver and glucose transporter 4 (GLUT4) protein expressions in skeletal muscle; each sample prepared was mixed with 1% sodium dodecyl sulfate and 50 mM dithiothreitol, and the mixture was subjected to electrophoresis with 10% polyacrylamide gel. The separated proteins on the gel were electrotransferred to a polyvinylidene difluoride membrane. After blocking with 5% skim milk solution including 0.05% Poly (Oxyethylene) sorbitan monolaurate (Tween 20) overnight at 4° C., the membrane was reacted with anti-GLUT-2 antibody (Abcam, UK) & anti-GLUT-4 antibody (Abcam, UK) for 2 h. Subsequently, it was incubated with horseradish peroxidase conjugated IgG (diluted 1:2000) [Jackson immunoresearch laboratories, USA] for 2 h at room temperature (Western Blot). Reduced qualitative expression of GLUT2 and GLUT 4 in liver and muscle respectively of diabetic rats were improved with the garcinol treatment (FIG. 3), which were better than observed with olmesartan.

[9] = tested on: glucose transporter 2 (GLUT2); experiment: GLUT-2 protein expression in liver of diabetic rats (Western blot); type: in vivo, rat; settings: 8 weeks treatment, FIG. 3
Protocol: as §4

| Structure (SMILES) | Adiponectin (STZ diabetic rats [2]) [µg/mL] | Beta-2 microglobulin (GFR) (STZ diabetic rats [2]) [µg/mL] | Erythropoietin (STZ diabetic rats [2]) [mlU/ml] | Nitric Oxide (STZ diabetic rats [2]) [nmol/µL] | Plasma Insulin (STZ diabetic rats [2]) [ng/mL] | Serum Creatinine (GFR) (STZ diabetic rats [2]) [mg/dL] | Serum CystatinC (GFR) (STZ diabetic rats [2]) [ng/mL] | TGF-β (STZ diabetic rats [2]) [pg/mL] | TNF-α (STZ diabetic rats [2]) [pg/mL] | Total Proteins (STZ diabetic rats [2]) [mg/mL] | VEGF (STZ diabetic rats [2]) [pg/mL] | Apoptosis (STZ diabetic rats [3]) [% FA] | GSI (glomerulosclerotic index) (STZ diabetic rats [4]) | % BETA-CELL FUNCTION (STZ diabetic rats [5]) | HOMA-INDEX (STZ diabetic rats [5]) | TIMI (tubulointerstitial matrix index) (STZ diabetic rats [6]) | Reduction of fasting blood glucose (STZ diabetic rats [7]) [%] | Reduction of post prandial glucose (STZ diabetic rats [7]) [%] | Blood glucose, fasting, before treatment (STZ diabetic rats [7]) [mg/dL] | Blood glucose, post prandial, before treatment (STZ diabetic rats [7]) [mg/dL] | further results |
| --- | --- | --- | --- | --- | --- | --- | --- | --- | --- | --- | --- | --- | --- | --- | --- | --- | --- | --- | --- | --- | --- |
| C=C(C)[C@@H](CC=C(C)C)C[C@@]12C[C@@H](CC=C(C)C)C(C)(C)[C@@](CC=C(C)C)(C(=O)C(C(=O)c3ccc(O)c(O)c3)=C1O)C2=O [Garcinol] | 3.297 ± 0.56 | 0.3488 ± 0.12 | 0.3508 ± 0.029 | 0.32 ± 0.026 | 12.13 ± 1.17 | 1.804 ± 0.36 | 0.4098 ± 0.028 | 3.908 ± 0.82 | 0.04059 ± 0.0092 | 2.05 ± 0.14 | 57.21 ± 3.89 | 20 | 1.4 | 31.4 ± 3.17 | 1.55 ± 0.0827 | 2 | ~18 | ~36 | 166.2 ± 4.9 | 287 ± 24.7 | Diastolic blood pressure, after Garcinol administration (STZ diabetic rats [1]; after Garcinol administration): 112; Mean blood pressure, after Garcinol administration (STZ diabetic rats [1]; after Garcinol administration): 125; Systolic blood pressure, after Garcinol administration (STZ diabetic rats [1]; after Garcinol administration): 153; Diastolic blood pressure, before treatment (STZ diabetic rats [1]; before treatment): 127; Mean blood pressure, before treatment (STZ diabetic rats [1]; before treatment): 139; Systolic blood pressure, before treatment (STZ diabetic rats [1]; before treatment): 165; Blood glucose, fasting, after treatment (STZ diabetic rats [7]): 136.2 ± 5.86 mg/dL; Blood glucose, post prandial, after treatment (STZ diabetic rats [7]): 190 ± 5.27 mg/dL; Nephrin (rat nephrin): 50 % FA |
| CCC1=C(C)CN(C(=O)NCCc2ccc(S(=O)(=O)NC(=O)N[C@H]3CC[C@H](C)CC3)cc2)C1=O [Glimepiride, glimepiride] | 2.277 ± 0.86 | 1.42 ± 0.21 | 0.5141 ± 0.13 | 0.33 ± 0.064 | 14.38 ± 1.29 | 1.873 ± 0.56 | 0.2933 ± 0.033 | 8.316 ± 2.06 | 0.08563 ± 0.0167 | 1.956 ± 0.09 | 61.29 ± 2.54 | 90 | 2.8 | 35.6 ± 5.24 | 1.53 ± 0.144 | 2 | ~27 | ~43 | 165.2 ± 1.5 | 308 ± 4.98 | Qualitative expression of GLUT 4 in muscle [8]: did not show any improvement; Qualitative expression of GLUT2 in liver [9]: did not show any improvement; DNA fragmentation / apoptosis in kidney (qualitative) (STZ diabetic rats [3]): no change in the decrease in apoptosis; Blood glucose, fasting, after treatment (STZ diabetic rats [7]): 119.2 ± 5.4 mg/dL; Blood glucose, post prandial, after treatment (STZ diabetic rats [7]): 174 ± 3.75 mg/dL; Nephrin (rat nephrin): 20 % FA |
| CCCc1nc(C(C)(C)O)c(C(=O)OCc2oc(=O)oc2C)n1Cc1ccc(-c2ccccc2-c2nnn[nH]2)cc1 [Olmesartan, olmesartan medoxomil] | 0.93 ± 0.18 | 0.6529 ± 0.21 | 0.2657 ± 0.047 | 0.34 ± 0.097 | 12.74 ± 1.48 | 2.063 ± 0.41 | 0.4617 ± 0.048 | 5.963 ± 0.896 | 0.05665 ± 0.013 | 2.123 ± 0.11 | 66.3 ± 1.14 | 40 | 1.4 | 21.7 ± 1.98 | 1.7 ± 0.095 | 1 | 14 | ~10 | 162.7 ± 4.34 | 288 ± 6.82 | DNA fragmentation / apoptosis in kidney (qualitative) (STZ diabetic rats [3]): decrease in the DNA fragmentation was clearly observed qualitatively; Histopathological changes in kidney (qualitative) (STZ diabetic rats [4]; kidney of diabetic rats, FIG. 4): improvement in tubular injury was visible; Blood glucose, fasting, after treatment (STZ diabetic rats [7]): 139.7 ± 5.05 mg/dL; Blood glucose, post prandial, after treatment (STZ diabetic rats [7]): 259 ± 7.16 mg/dL; Nephrin (rat nephrin): 62.5 % FA |

From patent publication US9872840B2, “Effect of garcinol in delaying the progression of diabetic nephropathy” (Delhi Institute of Pharmaceutical Sciences and Research, priority 2013, dated 2018)
